{
  "source": "ChEMBL document CHEMBL1201862",
  "about": "“PubChem BioAssay data set” (2004)",
  "key": {"HeLa": {"test_system": "HeLa", "experiment": "HeLa cell cytotoxicity, dose response, cytotoxicity control, ATP luminescence, cherry-pick samples (AID 687004)", "type": "functional, cell-based", "conditions": "Homo sapiens"}, "HEK293": {"test_system": "HEK293", "experiment": "HEK293T cell cytotoxicity, dose response, cytotoxicity control, ATP luminescence, cherry-pick samples (AID 687005);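 further: cells exposed to compound for 48 hours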", "type": "functional, cell-based", "conditions": "Homo sapiens"}, "[1]": {"experiment": "HEK293 Cytotoxicity Assay Measured in Cell-Based System Using Plate Reader - 7071-01_Inhibitor_Dose_CherryPick_Activity_Set2.", "type": "functional"}, "[2]": {"experiment": "inhibitors of TNFa-stimulated NF-kB luciferase reporter, dose response, selectivity assay for EBV LMP1 NF-kB inhibitor project, HEK293 LMP1 reporter cells, dry powder, set 2 (AID 624369)", "type": "functional"}, "[3]": {"experiment": "inhibitors of LMP1-driven NF-kB reporter, dose response, cell-based, EBV LMP1, luciferase, dry powder, set 2 (AID 624361)", "type": "functional"}, "A549": {"test_system": "A549", "experiment": "A549 cell toxicity, dose response, cytotoxicity control, plate reader, cherry-pick samples (AID 687028)", "type": "functional, cell-based", "conditions": "Homo sapiens"}, "Paired box protein Pax-8": {"target": "Paired box protein Pax-8 (Homo sapiens, UniProt Q06710)", "sequence (Q06710 whole entry)": "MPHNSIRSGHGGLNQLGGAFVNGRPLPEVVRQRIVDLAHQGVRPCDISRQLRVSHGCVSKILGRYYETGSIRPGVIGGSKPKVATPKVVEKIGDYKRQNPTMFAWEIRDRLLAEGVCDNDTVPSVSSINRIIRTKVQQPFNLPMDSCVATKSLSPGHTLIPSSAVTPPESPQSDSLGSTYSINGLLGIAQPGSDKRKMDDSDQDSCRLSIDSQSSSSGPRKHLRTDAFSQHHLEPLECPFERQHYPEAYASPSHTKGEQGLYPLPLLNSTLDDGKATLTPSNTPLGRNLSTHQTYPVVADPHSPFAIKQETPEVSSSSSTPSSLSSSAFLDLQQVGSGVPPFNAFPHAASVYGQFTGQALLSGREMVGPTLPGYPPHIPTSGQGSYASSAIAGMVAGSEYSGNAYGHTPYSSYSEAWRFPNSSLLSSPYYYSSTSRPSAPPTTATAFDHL", "experiment": "inhibitors of PAX8-driven TPO luciferase reporter, dose response, RMG-I cells, cherry-pick (AID 687027);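 further: luciferase reporter driven by Pax8 target thyroperoxidase promoter measured by SteadyGlo luminescence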", "type": "functional, cell-based"}, "[4]": {"experiment": "A2780 ovarian cancer cell cytotoxicity, dose response, cytotoxicity control, plate reader, dry powder samples (AID 743046)", "type": "functional, cell-based"}, "[5]": {"experiment": "cytotoxicity in OVCAR8 ovarian cancer cells, dose response, PAX8 project, cell-based, plate reader, dry powder samples (AID 743197)", "type": "functional", "conditions": "OVCAR-8"}, "[6]": {"experiment": "HEK293 cell cytotoxicity, dose response, cytotoxicity control, cherry-picks, set 5 (AID 1053117)", "type": "functional, cell-based"}, "[7]": {"experiment": "inhibitors of fibronectin matrix deposition, dose response, AH1F cells, Alexa488-FN fluorescence, cherry-picks (AID 1035475)", "type": "functional, cell-based"}, "[8]": {"experiment": "HepG2 cell cytotoxicity, dose response, cytotoxicity control, cherry-picks, set 5 (AID 1053118)", "type": "functional, cell-based"}, "[9]": {"experiment": "P. falciparum Dd2 growth inhibitors, dose response, SYBR Green, cherry-picked samples (AID 1159567)", "type": "functional, cell-based"}, "[10]": {"experiment": "HepG2 cell cytotoxicity, dose response, cytotoxicity control, cherry-picked samples (AID 1159577)", "type": "functional, cell-based"}, "[11]": {"experiment": "HEK293T cytotoxicity, dose response, cytotoxicity control for miR-122 modulator project, cell-based, inhibitor set, cherry-pick, set 2 (AID 720697)", "type": "functional"}, "Protein Wnt-3a": {"target": "Protein Wnt-3a (Mus musculus, UniProt P27467)", "sequence (P27467 whole entry)": "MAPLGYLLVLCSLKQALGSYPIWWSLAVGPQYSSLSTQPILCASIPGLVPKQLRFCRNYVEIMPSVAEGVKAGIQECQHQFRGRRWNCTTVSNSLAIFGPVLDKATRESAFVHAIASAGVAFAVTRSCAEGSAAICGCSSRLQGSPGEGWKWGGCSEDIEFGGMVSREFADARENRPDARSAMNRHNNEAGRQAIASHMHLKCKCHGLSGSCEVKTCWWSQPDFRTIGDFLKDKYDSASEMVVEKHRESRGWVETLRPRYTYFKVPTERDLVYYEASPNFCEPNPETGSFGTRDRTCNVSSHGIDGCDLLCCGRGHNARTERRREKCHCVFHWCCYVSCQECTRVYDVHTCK", "experiment": "SAR analysis of small molecule antagonists of Gli-SUFU in a Wnt3a luminescent reporter assay.", "type": "functional"}},
  "note": "Calls of active or inactive are those of the source. For most assays here, no stated cut-off is given here; in the data, actives have a measured AC50 and inactives only a lower limit.",
  "data": [
    {"smiles": "C[C@@H]1CN([C@@H](C)CO)S(=O)(=O)c2ccc(-c3ccccc3)cc2O[C@H]1CN(C)C(=O)C1CCCCC1", "values": [
      {"measurement": "AC50", "setting": "HeLa", "value": "> 52 µM (inactive)"},
      {"measurement": "AC50", "setting": "HEK293", "value": "15.4 µM (active)"},
      {"measurement": "AC50", "setting": "[1]", "value": "15.4 µM (active)"}
    ]},
    {"smiles": "Cc1cc(C(=O)Nc2ccc3c(c2)C(=O)N(C)[C@H]2CC[C@H](CC(=O)NCc4ccc(-c5ccccc5)cc4)O[C@H]2CO3)no1", "values": [
      {"measurement": "AbsAC35", "setting": "[2]", "value": 62.14, "unit": "µM"},
      {"measurement": "AbsAC35", "setting": "[3]", "value": 37.95, "unit": "µM"}
    ]},
    {"smiles": "C[C@H](CO)N1C[C@H](C)[C@@H](CN(C)C(=O)Nc2ccc(C(F)(F)F)cc2)OCCCC[C@H](C)Oc2ccc(NC(=O)C3CCCCC3)cc2C1=O", "values": [
      {"measurement": "AC50", "setting": "A549", "value": "30.5 µM (active)"}
    ]},
    {"smiles": "C[C@H](CO)N1C[C@H](C)[C@@H](CN(C)Cc2ccc(Cl)c(Cl)c2)OCCCC[C@H](C)Oc2ccc(NS(=O)(=O)c3ccc(Cl)cc3)cc2C1=O", "values": [
      {"measurement": "AC50", "setting": "Paired box protein Pax-8", "value": "11.5 µM (active)"},
      {"measurement": "AC50", "setting": "[4]", "value": "4.46 µM (active)"},
      {"measurement": "AC50", "setting": "[5]", "value": "> 70 µM (inactive)"}
    ]},
    {"smiles": "CN1c2ccc(-c3ccccc3)cc2[C@H]2[C@H](CCN2C(=O)CN2CCOCC2)[C@@H]1CO", "values": [
      {"measurement": "AC50", "setting": "[6]", "value": "> 52 µM (inactive)"},
      {"measurement": "AC50", "setting": "[7]", "value": "> 70 µM (inactive)"}
    ]},
    {"smiles": "CO[C@@H]1CN(C)C(=O)c2ccc(NC(=O)c3ccc(-c4ccccc4)cc3)cc2OC[C@@H](C)NC[C@@H]1C", "values": [
      {"measurement": "AC50", "setting": "[8]", "value": "> 52 µM (inactive)"},
      {"measurement": "AC50", "setting": "[9]", "value": "3.9 µM (active)"},
      {"measurement": "AC50", "setting": "[10]", "value": "11.9 µM (active)"}
    ]},
    {"smiles": "CN(C)C(=O)C[C@@H]1CC[C@@H]2[C@@H](COc3ccc(NC(=O)C4CC4)cc3C(=O)N2C)O1", "values": [
      {"measurement": "AC50", "setting": "[11]", "value": "9.22 µM (active)"}
    ]},
    {"smiles": "CN(C)c1cc(NC(=O)c2ccccc2F)ncn1", "values": [
      {"measurement": "IC50", "setting": "Protein Wnt-3a", "value": "> 21.8 µM (inactive)"}
    ]}
  ]
}
